Test results as given in ChEMBL document CHEMBL3045586, “Synthesis and antimicrobial activity of some new 4-triazolylmethoxy-2H-chromen-2-one derivatives” (2012).
Values after ≈ are worked out from the molar mass of the structure shown.

Columns and labels:
Candida albicans [1] = experiment: Fungicidal activity against Candida albicans MTCC 227 after 3 days; format: functional; details: MTCC 227, 72 h
Aspergillus niger [2] = experiment: Fungicidal activity against Aspergillus niger MTCC 282 after 3 days; format: functional; details: MTCC 282, 72 h
Escherichia coli [3] = experiment: Bactericidal against Escherichia coli MTCC 443 after 3 days; format: functional; details: MTCC 443, 72 h
Klebsiella pneumoniae [4] = experiment: Bactericidal activity against Klebsiella pneumoniae MTCC 432 after 3 days; format: functional; details: MTCC 432, 72 h
Staphylococcus aureus [5] = experiment: Bactericidal activity against Staphylococcus aureus MTCC 096 after 3 days; format: functional; details: MTCC 096, 72 h
Candida albicans [6] = format: functional, MTCC 227
Candida albicans [7] = experiment: Antifungal activity against Candida albicans MTCC 227 after 28 to 30 hr by serial dilution method; format: functional
Aspergillus flavus [8] = experiment: Antifungal activity against Aspergillus flavus MTCC 277 at […] to […] ug/ml after 28 to 30 hr by cup-plate method; format: functional
Aspergillus niger [9] = experiment: Antifungal activity against Aspergillus niger MTCC 282 at […] to […] ug/ml after 28 to 30 hr by cup-plate method; format: functional
Klebsiella pneumoniae [10] = format: functional, MTCC 432
Aspergillus niger [11] = experiment: Antifungal activity against Aspergillus niger MTCC 282 after 28 to 30 hr by serial dilution method; format: functional
Klebsiella pneumoniae [12] = experiment: Antibacterial activity against Klebsiella pneumoniae MTCC 432 after 16 to 18 hr by serial dilution method; format: functional
Salmonella typhi [13] = experiment: Antibacterial activity against Salmonella enterica subsp. enterica serovar Typhi MTCC 733 at […] to […] ug/ml after 16 to 18 hr by cup-plate method; format: functional
Salmonella typhi [14] = experiment: Antibacterial activity against Salmonella enterica subsp. enterica serovar Typhi MTCC 733 after 16 to 18 hr by serial dilution method; format: functional
Pseudomonas aeruginosa [15] = format: functional, MTCC 424
Pseudomonas aeruginosa [16] = experiment: Antibacterial activity against Pseudomonas aeruginosa MTCC 424 after 16 to 18 hr by serial dilution method; format: functional
Escherichia coli [17] = experiment: Antibacterial activity against Escherichia coli MTCC 443 after 16 to 18 hr by serial dilution method; format: functional
Escherichia coli [18] = format: functional, MTCC 443
Aspergillus flavus [19] = experiment: Antifungal activity against Aspergillus flavus MTCC 277 after 28 to 30 hr by serial dilution method; format: functional
Aspergillus fumigatus [20] = experiment: Antifungal activity against Aspergillus fumigatus MTCC 343 at […] to […] ug/ml after 28 to 30 hr by cup-plate method; format: functional
Aspergillus fumigatus [21] = experiment: Antifungal activity against Aspergillus fumigatus MTCC 343 after 28 to 30 hr by serial dilution method; format: functional
[22] = tested on: Staphylococcus epidermidis; format: functional, MTCC 435
[23] = tested on: Staphylococcus epidermidis; experiment: Antibacterial activity against Staphylococcus epidermidis MTCC 435 after 16 to 18 hr by serial dilution method; format: functional
Bacillus subtilis [24] = experiment: Antibacterial activity against Bacillus subtilis MTCC 441 after 16 to 18 hr by serial dilution method; format: functional
Bacillus subtilis [25] = format: functional, MTCC 441
Staphylococcus aureus [26] = format: functional, MTCC 096
Staphylococcus aureus [27] = experiment: Antibacterial activity against Staphylococcus aureus MTCC 096 after 16 to 18 hr by serial dilution method; format: functional

| Compound | MFC (Candida albicans [1]) [µg/mL] | MFC (Aspergillus niger [2]) [µg/mL] | MBC (Escherichia coli [3]) [µg/mL] | MBC (Klebsiella pneumoniae [4]) [µg/mL] | MBC (Staphylococcus aureus [5]) [µg/mL] | inhibition zone (IZ) (Candida albicans [6]) [mm] | MIC (Candida albicans [7]) [µg/mL] | inhibition zone (IZ) (Aspergillus flavus [8]) [mm] | inhibition zone (IZ) (Aspergillus niger [9]) [mm] | inhibition zone (IZ) (Klebsiella pneumoniae [10]) [mm] | MIC (Aspergillus niger [11]) [µg/mL] | MIC (Klebsiella pneumoniae [12]) [µg/mL] | inhibition zone (IZ) (Salmonella typhi [13]) [mm] | MIC (Salmonella typhi [14]) [µg/mL] | inhibition zone (IZ) (Pseudomonas aeruginosa [15]) [mm] | MIC (Pseudomonas aeruginosa [16]) [µg/mL] | MIC (Escherichia coli [17]) [µg/mL] | inhibition zone (IZ) (Escherichia coli [18]) [mm] | MIC (Aspergillus flavus [19]) [µg/mL] | inhibition zone (IZ) (Aspergillus fumigatus [20]) [mm] | other results |
| --- | --- | --- | --- | --- | --- | --- | --- | --- | --- | --- | --- | --- | --- | --- | --- | --- | --- | --- | --- | --- | --- |
| O=c1cc(OCc2nnc(-c3cccs3)[nH]2)c2ccccc2o1 | 12.5 (≈ 38.4 µM) | 12.5 (≈ 38.4 µM) | 12.5 (≈ 38.4 µM) | 25 (≈ 76.8 µM) | 6.25 (≈ 19.2 µM) | 15 | 6.25 (≈ 19.2 µM) | 13 | 15 | 15 | 6.25 (≈ 19.2 µM) | 6.25 (≈ 19.2 µM) | <10 | 25 (≈ 76.8 µM) | 12 | 12.5 (≈ 38.4 µM) | 6.25 (≈ 19.2 µM) | 14 | 12.5 (≈ 38.4 µM) | 12 | MIC (Aspergillus fumigatus [21]): 12.5 µg/mL (≈ 38.4 µM); inhibition zone (IZ) [22]: 11 mm; MIC [23]: 12.5 µg/mL (≈ 38.4 µM); MIC (Bacillus subtilis [24]): 12.5 µg/mL (≈ 38.4 µM); inhibition zone (IZ) (Bacillus subtilis [25]): 11 mm; inhibition zone (IZ) (Staphylococcus aureus [26]): 14 mm; MIC (Staphylococcus aureus [27]): 6.25 µg/mL (≈ 19.2 µM) |
| O=c1cc(OCc2nnc(-c3ccc(F)cc3)[nH]2)c2ccccc2o1 | 12.5 (≈ 37.1 µM) | 25 (≈ 74.1 µM) | 25 (≈ 74.1 µM) | 25 (≈ 74.1 µM) | 12.5 (≈ 37.1 µM) | 14 | 6.25 (≈ 18.5 µM) | 11 | 13 | 13 | 12.5 (≈ 37.1 µM) | 6.25 (≈ 18.5 µM) | 11 | 12.5 (≈ 37.1 µM) | <10 | 25 (≈ 74.1 µM) | 12.5 (≈ 37.1 µM) | 11 | 12.5 (≈ 37.1 µM) | 12 | MIC (Aspergillus fumigatus [21]): 12.5 µg/mL (≈ 37.1 µM); inhibition zone (IZ) [22]: <10 mm; MIC [23]: 50 µg/mL (≈ 148 µM); MIC (Bacillus subtilis [24]): 50 µg/mL (≈ 148 µM); inhibition zone (IZ) (Bacillus subtilis [25]): <10 mm; inhibition zone (IZ) (Staphylococcus aureus [26]): 13 mm; MIC (Staphylococcus aureus [27]): 6.25 µg/mL (≈ 18.5 µM) |
| COc1cc(-c2nnc(COc3cc(=O)oc4ccccc34)[nH]2)ccc1O | 12.5 (≈ 34.2 µM) | 12.5 (≈ 34.2 µM) | 12.5 (≈ 34.2 µM) | 12.5 (≈ 34.2 µM) | 12.5 (≈ 34.2 µM) | 14 | 6.25 (≈ 17.1 µM) | <10 | 12 | 15 | 12.5 (≈ 34.2 µM) | 6.25 (≈ 17.1 µM) | 14 | 6.25 (≈ 17.1 µM) | <10 | 25 (≈ 68.4 µM) | 6.25 (≈ 17.1 µM) | 13 | 25 (≈ 68.4 µM) | 13 | MIC (Aspergillus fumigatus [21]): 12.5 µg/mL (≈ 34.2 µM); inhibition zone (IZ) [22]: <10 mm; MIC [23]: 50 µg/mL (≈ 137 µM); MIC (Bacillus subtilis [24]): 12.5 µg/mL (≈ 34.2 µM); inhibition zone (IZ) (Bacillus subtilis [25]): 11 mm; inhibition zone (IZ) (Staphylococcus aureus [26]): 15 mm; MIC (Staphylococcus aureus [27]): 6.25 µg/mL (≈ 17.1 µM) |
| COc1ccc(-c2nnc(COc3cc(=O)oc4ccccc34)[nH]2)cc1OC | 25 (≈ 65.9 µM) | 25 (≈ 65.9 µM) | 25 (≈ 65.9 µM) | 25 (≈ 65.9 µM) | 12.5 (≈ 32.9 µM) | 15 | 6.25 (≈ 16.5 µM) | <10 | 13 | 11 | 6.25 (≈ 16.5 µM) | 12.5 (≈ 32.9 µM) | 13 | 6.25 (≈ 16.5 µM) | <10 | 25 (≈ 65.9 µM) | 25 (≈ 65.9 µM) | <10 | 25 (≈ 65.9 µM) | <10 | MIC (Aspergillus fumigatus [21]): 25 µg/mL (≈ 65.9 µM); inhibition zone (IZ) [22]: <10 mm; MIC [23]: 25 µg/mL (≈ 65.9 µM); MIC (Bacillus subtilis [24]): 25 µg/mL (≈ 65.9 µM); inhibition zone (IZ) (Bacillus subtilis [25]): <10 mm; inhibition zone (IZ) (Staphylococcus aureus [26]): 14 mm; MIC (Staphylococcus aureus [27]): 6.25 µg/mL (≈ 16.5 µM) |
| COc1cc(-c2nnc(COc3cc(=O)oc4ccccc34)[nH]2)cc(OC)c1OC | 25 (≈ 61.1 µM) | 25 (≈ 61.1 µM) | 25 (≈ 61.1 µM) | 25 (≈ 61.1 µM) | 25 (≈ 61.1 µM) | 12 | 12.5 (≈ 30.5 µM) | <10 | 14 | 11 | 6.25 (≈ 15.3 µM) | 12.5 (≈ 30.5 µM) | 14 | 6.25 (≈ 15.3 µM) | <10 | 25 (≈ 61.1 µM) | 12.5 (≈ 30.5 µM) | 12 | 25 (≈ 61.1 µM) | 11 | MIC (Aspergillus fumigatus [21]): 25 µg/mL (≈ 61.1 µM); inhibition zone (IZ) [22]: 12 mm; MIC [23]: 12.5 µg/mL (≈ 30.5 µM); MIC (Bacillus subtilis [24]): 6.25 µg/mL (≈ 15.3 µM); inhibition zone (IZ) (Bacillus subtilis [25]): 14 mm; inhibition zone (IZ) (Staphylococcus aureus [26]): 14 mm; MIC (Staphylococcus aureus [27]): 6.25 µg/mL (≈ 15.3 µM) |
